Patent US20160355475A1, “NOVEL INDOLE DERIVATIVE COMPOUND AND PHARMACEUTICAL COMPOSITION COMPRISING THE SAME” (CHONG KUN DANG PHARMACEUTICAL CORP., priority 2014, published 2016)

Tests used:
HDAC6 human recombinant = target: T1, HDAC6 human recombinant (Homo sapiens, UniProt Q9UBN7); assay: HDAC6 enzyme activity inhibition (fluorimetric, in vitro); format: biochemical; settings: 37° C., 60 minutes; tested at 0.1, 1, 10, 100 and 1000 nM
T1 construct: purchased Calbiochem 382180
T1 sequence (Q9UBN7 1-1215): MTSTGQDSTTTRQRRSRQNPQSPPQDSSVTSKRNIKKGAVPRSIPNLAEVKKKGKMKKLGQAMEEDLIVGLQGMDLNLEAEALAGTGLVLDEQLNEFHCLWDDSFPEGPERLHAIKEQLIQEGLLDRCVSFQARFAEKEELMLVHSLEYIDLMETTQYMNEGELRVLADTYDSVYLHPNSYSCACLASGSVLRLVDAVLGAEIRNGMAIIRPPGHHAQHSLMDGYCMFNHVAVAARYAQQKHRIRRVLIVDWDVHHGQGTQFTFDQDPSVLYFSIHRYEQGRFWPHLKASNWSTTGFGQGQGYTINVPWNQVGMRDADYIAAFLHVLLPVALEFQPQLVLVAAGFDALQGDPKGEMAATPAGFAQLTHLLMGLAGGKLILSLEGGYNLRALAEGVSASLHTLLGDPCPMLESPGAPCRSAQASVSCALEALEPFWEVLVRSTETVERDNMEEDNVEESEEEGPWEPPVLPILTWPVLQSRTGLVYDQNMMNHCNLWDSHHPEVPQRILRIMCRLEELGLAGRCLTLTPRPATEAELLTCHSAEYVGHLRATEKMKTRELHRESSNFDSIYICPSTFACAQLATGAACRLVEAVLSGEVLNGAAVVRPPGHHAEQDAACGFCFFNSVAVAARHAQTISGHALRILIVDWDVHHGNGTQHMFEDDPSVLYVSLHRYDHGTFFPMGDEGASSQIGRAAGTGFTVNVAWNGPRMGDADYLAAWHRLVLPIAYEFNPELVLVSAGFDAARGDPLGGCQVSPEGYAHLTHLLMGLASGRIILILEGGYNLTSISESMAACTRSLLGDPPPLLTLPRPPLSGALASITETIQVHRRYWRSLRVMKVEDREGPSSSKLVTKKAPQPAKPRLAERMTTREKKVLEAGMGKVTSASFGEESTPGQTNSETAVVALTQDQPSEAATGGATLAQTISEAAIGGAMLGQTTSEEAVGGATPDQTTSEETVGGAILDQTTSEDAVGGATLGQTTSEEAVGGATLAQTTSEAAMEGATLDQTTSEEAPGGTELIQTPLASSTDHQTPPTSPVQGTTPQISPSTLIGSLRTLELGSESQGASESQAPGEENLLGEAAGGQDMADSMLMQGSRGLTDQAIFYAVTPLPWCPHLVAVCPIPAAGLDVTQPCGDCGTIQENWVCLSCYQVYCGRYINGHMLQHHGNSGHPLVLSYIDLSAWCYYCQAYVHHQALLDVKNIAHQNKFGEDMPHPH
Protocol: (§1) 1. Experiment on Activities in HDAC Enzymes (HDAC1 and HDAC6)
(§2) Assays were performed using a HDAC1 fluorimetric drug discovery assay kit (Enzolifesciences: BML-AK511) and a HDAC6 human recombinant (Calbiochem: 382180). The assay mixture of the kit was treated with each of the compounds of the Examples at concentrations 100, 1000 and 10000 nM for HDAC1 assay and 0.1, 1, 10, 100 and 1000 nM for HDAC6 assay. The treated assay mixture was allowed to react at 37° C. for 60 minutes, and then was treated with a developer and allowed to stand at 37° C. for 30 minutes, followed by quantification of the fluorescence. In Table 17, lower HDAC6 values (μM) indicate higher HDAC6 inhibitory activities of the compounds. Also, because selective HDAC6 inhibitors should not inhibit HDAC1 (μM), higher HDAC1 values indicate higher HDAC6 selectivity of the compounds.

HDAC1 = target: T2, HDAC1 (Homo sapiens, UniProt Q13547); assay: HDAC1 enzyme activity inhibition (HDAC1 fluorimetric drug discovery assay kit); format: biochemical; settings: 37° C., 60 minutes; tested at 100, 1000 and 10000 nM
T2 construct: purchased Enzolifesciences BML-AK511
T2 sequence (Q13547 whole entry): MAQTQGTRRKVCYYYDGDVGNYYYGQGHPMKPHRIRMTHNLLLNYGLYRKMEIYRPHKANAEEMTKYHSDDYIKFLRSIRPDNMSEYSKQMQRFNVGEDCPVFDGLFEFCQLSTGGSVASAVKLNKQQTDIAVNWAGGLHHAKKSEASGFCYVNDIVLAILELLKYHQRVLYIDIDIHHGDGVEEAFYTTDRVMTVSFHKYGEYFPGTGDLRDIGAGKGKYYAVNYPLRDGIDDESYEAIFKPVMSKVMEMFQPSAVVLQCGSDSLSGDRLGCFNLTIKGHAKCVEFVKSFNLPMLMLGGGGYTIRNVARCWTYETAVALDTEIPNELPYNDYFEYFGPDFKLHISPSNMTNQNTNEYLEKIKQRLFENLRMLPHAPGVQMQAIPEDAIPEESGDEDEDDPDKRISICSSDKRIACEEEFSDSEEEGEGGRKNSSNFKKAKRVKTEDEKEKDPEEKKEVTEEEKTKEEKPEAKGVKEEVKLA
Protocol: as §1, §2

SMILES	IC50 (HDAC6 human recombinant) [nM]	IC50 (HDAC1) [nM]
COC[C@@H]1CCCN1CCn1c(C)c(Cc2ccc(C(=O)NO)cc2)c2ccccc21 [Compound 200, (S)—N-hydroxy-4-((1-(2-(2-(methoxymethyl)pyrrolidin-1-yl)ethyl)-2-methyl-1H-indol-3-yl)methyl)benzamide]	8	2610
CCCCN1CCC(Cn2c(C)c(Cc3ccc(C(=O)NO)cc3)c3ccccc32)CC1 [Compound 558, 4-((1-((1-Butylpiperidin-4-yl)methyl)-2-methyl-1H-indol-3-yl)methyl)-N-hydroxybenzamide]	80	6110
CCC(F)(CC)CN1CCC(CCn2c(C)c(Cc3ccc(C(=O)NO)cc3)c3ccccc32)CC1 [Compound 581, 4-((1-(2-(1-(2-Ethyl-2-fluorobutyl)piperidin-4-yl)ethyl)-2-methyl-1H-indol-3-yl)methyl)-N-hydroxybenzamide]	870	> 10000
Cc1c(Cc2ccc(C(=O)NO)cc2)c2cc(F)ccc2n1CC1CCN(CC(C)(C)O)CC1 [Compound 582, 4-((5-Fluoro-1-((1-(2-hydroxy-2-methylpropyl)piperidin-4-yl)methyl)-2-methyl-1H-indol-3-yl)methyl)-N-hydroxybenzamide]	27	2460
Cc1c(Cc2ccc(C(=O)NO)cc2)c2ccccc2n1CCN1CCCCC1 [Compound 585]	84	7750
Cc1c(Cc2ccc(C(=O)NO)cc2)c2cc(F)ccc2n1CCN1CC[C@H](F)C1 [Compound 589, (S)-4-((5-fluoro-1-(2-(3-fluoropyrrolidin-1-yl)ethyl)-2-methyl-1H-indol-3-yl)methyl)-N-hydroxybenzamide]	63	4640
Cc1c(Cc2ccc(C(=O)NO)cc2)c2cc(F)ccc2n1CCN1CCC(F)CC1 [Compound 590, 4-((5-Fluoro-1-(2-(4-fluoropiperidin-1-yl)ethyl)-2-methyl-1H-indol-3-yl)methyl)-N-hydroxybenzamide]	49	6120
Cc1c(Cc2ccc(C(=O)NO)cc2)c2ccccc2n1CCN1CC[C@H](O)C1 [Compound 592, (S)—N-hydroxy-4-((1-(2-(3-hydroxypyrrolidin-1-yl)ethyl)-2-methyl-1H-indol-3-yl)methyl)benzamide]	16	4950
CCCc1c(Cc2ccc(C(=O)NO)cc2)c2ccccc2n1CC1CCN(CC(C)(C)F)CC1 [Compound 602, 4-((1-((1-(2-fluoro-2-methylpropyl)piperidin-4-yl)methyl)-2-propyl-1H-indol-3-yl)methyl)-N-hydroxybenzamide]	300	> 10000
Cc1c(Cc2ccc(C(=O)NO)cc2)c2ccccc2n1CC1CCN(Cc2cccc(-c3nccs3)c2)CC1 [Compound 603, N-hydroxy-4-((2-methyl-1-((1-(3-(thiazol-2-yl)benzyl)piperidin-4-yl)methyl)-1H-indol-3-yl)methyl)benzamide]	206	> 10000

Now from value to compound:

IC50 (HDAC6 human recombinant) [nM]	IC50 (HDAC1) [nM]	SMILES
9	2470	Cc1nccn1CCn1c(C)c(Cc2ccc(C(=O)NO)cc2)c2ccccc21 [Compound 201, N-hydroxy-4-((2-methyl-1-(2-(2-methyl-1H-imadazol-1-yl)ethyl)-1H-indol-3-yl)methyl)benzamide]
39	8100	Cc1c(Cc2ccc(C(=O)NO)cc2)c2ccccc2n1CCN1CCC(F)CC1 [Compound 553, 4-((1-(2-(4-Fluoropiperidin-1-yl)ethyl)-2-methyl-1H-indol-3-yl)methyl)-N-hydroxybenzamide]
25	370	Cc1c(Cc2ccc(C(=O)NO)cc2)c2ccccc2n1CCN1CCN(CC(C)(C)F)CC1 [Compound 564, 4-((1-(2-(4-(2-Fluoro-2-methylpropyl)piperazin-1-yl)ethyl)-2-methyl-1H-indol-3-yl)methyl)-N-hydroxybenzamide]
16	2810	Cc1c(Cc2ccc(C(=O)NO)cc2)c2ccccc2n1CCN1CCC(CO)C1 (stereo not drawn) [Compound 586, N-hydroxy-4-((1-(2-(3-(hydroxymethyl)pyrrolidin-1-yl)ethyl)-2-methyl-1H-indol-3-yl)methyl)benzamide]
30	2810	Cc1c(Cc2ccc(C(=O)NO)cc2)c2cc(F)ccc2n1CCN1CC[C@H](O)C1 [Compound 587, (S)-4-((5-fluoro-1-(2-(3-hydroxypyrrolidin-1-yl)ethyl)-2-methyl-1H-indol-3-yl)methyl)-N-hydroxybenzamide]
378	6730	Cc1c(Cc2ccc(C(=O)NO)cc2)c2cc(F)ccc2n1CC1CCN(CC(C)(C)F)CC1 [Compound 588, 4-((5-Fluoro-1-((1-(2-fluoro-2-methylpropyl)piperidin-4-yl)methyl)-2-methyl-1H-indol-3-yl)methyl)-N-hydroxybenzamide]
31	6610	Cc1c(Cc2ccc(C(=O)NO)cc2)c2ccccc2n1CCN1CCC(CF)C1 (stereo not drawn) [Compound 591, 4-((1-(2-(3-(Fluoromethyl)pyrrolidin-1-yl)ethyl)-2-methyl-1H-indol-3-yl)methyl)-N-hydroxybenzamide]
32	7140	Cc1c(Cc2ccc(C(=O)NO)cc2)c2ccccc2n1CCN1CC[C@H](F)C1 [Compound 593, (S)-4-((1-(2-(3-fluoropyrrolidin-1-yl)ethyl)-2-methyl-1H-indol-3-yl)methyl)-N-hydroxybenzamide]
17	3140	Cc1c(Cc2ccc(C(=O)NO)cc2)c2ccccc2n1CCN1CCCC(CO)C1 (stereo not drawn) [Compound 594, N-hydroxy-4-((1-(2-(3-(hydroxymethyl)piperidin-1-yl)ethyl)-2-methyl-1H-indol-3-yl)methyl)benzamide]
98	5600	CCCc1c(Cc2ccc(C(=O)NO)cc2)c2ccccc2n1CC1CCN(CC(C)(C)O)CC1 [Compound 601, N-hydroxy-4-((1-((1-(2-hydroxy-2-methylpropyl)piperidin-4-yl)methyl)-2-propyl-1H-indol-3-yl)methyl)benzamide]
7	1070	Cc1c(Cc2ccc(C(=O)NO)cc2)c2ccccc2n1CC1CCN(CC(C)(C)O)CC1 [Compound 608, N-hydroxy-4-((1-((1-(2-hydroxy-2-methylpropyl)piperidin-4-yl)methyl)-2-methyl-1H-indol-3-yl)methyl)benzamide]
5	3630	Cc1c(Cc2ccc(C(=O)NO)cc2)c2ccccc2n1CC1CCN(CC2(F)COC2)CC1 [Compound 609, 4-((1-((1-((3-Fluorooxetan-3-yl)methyl)piperidin-4-yl)methyl)-2-methyl-1H-indol-3-yl)methyl)-N-hydroxybenzamide]
79	> 10000	Cc1c(Cc2ccc(C(=O)NO)cc2)c2ccccc2n1CC1CCN(CC2(F)CCN(C(=O)OC(C)(C)C)CC2)CC1 [Compound 610, Tert-butyl 4-fluoro-4-((4-((3-(4-(hydroxycarbamoyl)benzyl)-2-methyl-1H-indol-1-yl)methyl)piperidin-1-yl)methyl)piperidine-1-carboxylate]
24	2930	Cc1c(Cc2ccc(C(=O)NO)cc2)c2ccccc2n1CC1CCN(CC2(F)CCNCC2)CC1 [Compound 611, 4-((1-((1-((4-fluoropiperidin-4-yl)methyl)piperidin-4-yl)methyl)-2-methyl-1H-indol-3-yl)methyl)-N-hydroxybenzamide]
